A word on the Ki: it is a dissociation constant, usually derived from enzyme kinetics or from competition with a known ligand. Lower therefore signals tighter binding.

The results in this text go back to patent US10213433B2 (AbbVie Inc., priority 2010, dated 2019).

Some results are limits rather than exact numbers.

Sequence of Bcl-2 protein (P10415 whole entry): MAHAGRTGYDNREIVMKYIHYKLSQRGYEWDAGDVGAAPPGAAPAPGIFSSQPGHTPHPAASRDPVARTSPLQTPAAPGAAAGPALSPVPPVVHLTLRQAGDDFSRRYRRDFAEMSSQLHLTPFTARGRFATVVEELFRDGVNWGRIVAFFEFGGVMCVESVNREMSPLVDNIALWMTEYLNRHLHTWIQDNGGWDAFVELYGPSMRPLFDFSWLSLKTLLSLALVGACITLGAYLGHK

The target of this test is Bcl-2 protein (Homo sapiens (Human), UniProt P10415). Nature of the test: Bcl-2 binding TR-FRET (Time-Resolved Fluorescence-Resonance-Energy-Transfer) assay. The conditions noted are these: inhibition constant for binding to Bcl-2 protein. The source says:
The smaller the Ki value, the greater is the binding affinity.
(In general: TR-FRET usually uses a lanthanide donor and a delayed reading to cut background.)
`CC1(C)CCC(CN2CCN(c3ccc(C(=O)NS(=O)(=O)c4ccc(NC[C@@H]5CN(C6CC6)CCO5)c([N+](=O)[O-])c4)c(Oc4cnc5[nH]ccc5c4)c3)CC2)=C(c2ccc(Cl)cc2)C1` [Compound 326, 4-(4-{[2-(4-chlorophenyl)-4,4-dimethylcyclohex-1-en-1-yl]methyl}piperazin-1-yl)-N-{[4-({[(2R)-4-cyclopropylmorpholin-2-yl]methyl}amino)-3-nitrophenyl]sulfonyl}-2-(1H-pyrrolo[2,3-b]pyridin-5-yloxy)benzamide]: the Ki was below 0.01 nM. The figure for `CC1(C)CCC(CN2CCN(c3ccc(C(=O)NS(=O)(=O)c4ccc(OC[C@@H]5CC(F)(F)CN5C5COC5)c([N+](=O)[O-])c4)c(Oc4cnc5[nH]ccc5c4)c3)CC2)=C(c2ccc(Cl)cc2)C1` [Compound 168, 4-(4-{[2-(4-chlorophenyl)-4,4-dimethylcyclohex-1-en-1-yl]methyl}piperazin-1-yl)-N-[(4-{[(2S)-4,4-difluoro-1-oxetan-3-ylpyrrolidin-2-yl]methoxy}-3-nitrophenyl)sulfonyl]-2-(1H-pyrrolo[2,3-b]pyridin-5-yloxy)benzamide] is below 0.01 nM. Compound `CC1(C)CCC(CN2CCN(c3ccc(C(=O)NS(=O)(=O)c4ccc(NCC5COCCO5)c([N+](=O)[O-])c4)c(Oc4cnc5[nH]ccc5c4)c3)CC2)=C(c2ccc(Cl)cc2)C1` (stereo not drawn) [Compound 25, 4-(4-{[2-(4-chlorophenyl)-4,4-dimethylcyclohex-1-en-1-yl]methyl}piperazin-1-yl)-N-({4-[(1,4-dioxan-2-ylmethyl)amino]-3-nitrophenyl}sulfonyl)-2-(1H-pyrrolo[2,3-b]pyridin-5-yloxy)benzamide] gave a Ki below 0.01 nM.

In turn, `CC1(C)CCC(CN2CCN(c3ccc(C(=O)NS(=O)(=O)c4ccc(N[C@@H]5CCN(C6CCOC(C)(C)C6)C5)c([N+](=O)[O-])c4)c(Oc4cnc5[nH]ccc5c4)c3)CC2)=C(c2ccc(Cl)cc2)C1` (stereo partly drawn) [Compound 131, 4-(4-{[2-(4-chlorophenyl)-4,4-dimethylcyclohex-1-en-1-yl]methyl}piperazin-1-yl)-N-[(4-{[(3R)-1-(2,2-dimethyltetrahydro-2H-pyran-4-yl)pyrrolidin-3-yl]amino}-3-nitrophenyl)sulfonyl]-2-(1H-pyrrolo[2,3-b]pyridin-5-yloxy)benzamide] gave a Ki below 0.01 nM.

Consider `CN(C)CC(=O)N1CCOC(CNc2ccc(S(=O)(=O)NC(=O)c3ccc(N4CCN(CC5=C(c6ccc(Cl)cc6)CC(C)(C)CC5)CC4)cc3Oc3cnc4[nH]ccc4c3)cc2[N+](=O)[O-])C1` (stereo not drawn) [Compound 215, 4-(4-{[2-(4-chlorophenyl)-4,4-dimethylcyclohex-1-en-1-yl]methyl}piperazin-1-yl)-N-{[4-({[4-(N,N-dimethylglycyl)morpholin-2-yl]methyl}amino)-3-nitrophenyl]sulfonyl}-2-(1H-pyrrolo[2,3-b]pyridin-5-yloxy)benzamide], for which the Ki was below 0.01 nM. The figure for `COCCOCCN1CC[C@@H](Nc2ccc(S(=O)(=O)NC(=O)c3ccc(N4CCN(CC5=C(c6ccc(Cl)cc6)CC(C)(C)CC5)CC4)cc3Oc3cnc4[nH]ccc4c3)cc2[N+](=O)[O-])C1` [Compound 254, 4-(4-{[2-(4-chlorophenyl)-4,4-dimethylcyclohex-1-en-1-yl]methyl}piperazin-1-yl)-N-{[4-({(3R)-1-[2-(2-methoxyethoxyl)ethyl]pyrrolidin-3-yl}amino)-3-nitrophenyl]sulfonyl}-2-(1H-pyrrolo[2,3-b]pyridin-5-yloxy)benzamide] is below 0.01 nM. `CC1(C)CCC(CN2CCN(c3ccc(C(=O)NS(=O)(=O)c4ccc(OCC5(F)CCN(C6CCOCC6)CC5)c([N+](=O)[O-])c4)c(Oc4cnc5[nH]ccc5c4)c3)CC2)=C(c2ccc(Cl)cc2)C1` [Compound 192, 4-(4-{[2-(4-chlorophenyl)-4,4-dimethylcyclohex-1-en-1-yl]methyl}piperazin-1-yl)-N-({4-[(4-fluoro-1-tetrahydro-2H-pyran-4-ylpiperidin-4-yl)methoxy]-3-nitrophenyl}sulfonyl)-2-(1H-pyrrolo[2,3-b]pyridin-5-yloxy)benzamide]: the Ki was below 0.01 nM.

As to `O=C(NS(=O)(=O)c1ccc(NCC2CCOCC2)c([N+](=O)[O-])c1)c1ccc(N2CCN(CC3=C(c4ccc(Cl)cc4)CCC(CF)(CF)C3)CC2)cc1Oc1cnc2[nH]ccc2c1` [Compound 353, 4-(4-{[2-(4-chlorophenyl)-5,5-bis(fluoromethyl)cyclohex-1-en-1-yl]methyl}piperazin-1-yl)-N-({3-nitro-4-[(tetrahydro-2H-pyran-4-ylmethyl)amino]phenyl}sulfonyl)-2-(1H-pyrrolo[2,3-b]pyridin-5-yloxy)benzamide], the Ki was below 0.01 nM. Compound `O=C(NS(=O)(=O)c1ccc(NCC2CCOCC2)c([N+](=O)[O-])c1)c1ccc(N2CCN(CC3=C(c4ccc(Cl)cc4)CCC4(CCCC4)C3)CC2)cc1Oc1cnc2[nH]ccc2c1` [Compound 79, 4-(4-{[8-(4-chlorophenyl)spiro[4.5]dec-7-en-7-yl]methyl}piperazin-1-yl)-N-({3-nitro-4-[(tetrahydro-2H-pyran-4-ylmethyl)amino]phenyl}sulfonyl)-2-(1H-pyrrolo[2,3-b]pyridin-5-yloxy)benzamide] returned a Ki below 0.01 nM. On to `CC1(C)CCC(CN2CCN(c3ccc(C(=O)NS(=O)(=O)c4ccc(NCC5CN(CCF)CCO5)c([N+](=O)[O-])c4)c(Oc4cnc5[nH]ccc5c4)c3)CC2)=C(c2ccc(Cl)cc2)C1` (stereo not drawn) [Compound 165, 4-(4-{[2-(4-chlorophenyl)-4,4-dimethylcyclohex-1-en-1-yl]methyl}piperazin-1-yl)-N-{[4-({[4-(2-fluoroethyl)morpholin-2-yl]methyl}amino)-3-nitrophenyl]sulfonyl}-2-(1H-pyrrolo[2,3-b]pyridin-5-yloxy)benzamide], for which the Ki is below 0.01 nM.

`CN1CCC(COc2ncc(S(=O)(=O)NC(=O)c3ccc(N4CCN(CC5=C(c6ccc(Cl)cc6)CC(C)(C)CC5)CC4)cc3Oc3cnc4[nH]ccc4c3)cc2Br)CC1` [Compound 47, N-({5-bromo-6-[(1-methylpiperidin-4-yl)methoxy]pyridin-3-yl}sulfonyl)-4-(4-{[2-(4-chlorophenyl)-4,4-dimethylcyclohex-1-en-1-yl]methyl}piperazin-1-yl)-2-(1H-pyrrolo[2,3-b]pyridin-5-yloxy)benzamide] yielded an inhibitory constant (Ki) below 0.01 nM. Next, `CC[C@]1(O)CC[C@@H](CNc2ccc(S(=O)(=O)NC(=O)c3ccc(N4CCN(CC5=C(c6ccc(Cl)cc6)CC(C)(C)CC5)CC4)cc3Oc3cnc4[nH]ccc4c3)cc2[N+](=O)[O-])CC1` [Compound 358, 4-(4-{[2-(4-chlorophenyl)-4,4-dimethylcyclohex-1-en-1-yl]methyl}piperazin-1-yl)-N-[(4-{[(trans-4-ethyl-4-hydroxycyclohexyl)methyl]amino}-3-nitrophenyl)sulfonyl]-2-(1H-pyrrolo[2,3-b]pyridin-5-yloxy)benzamide]: below 0.01 nM; `CN1CCC(CNc2ccc(S(=O)(=O)NC(=O)c3ccc(N4CCN(CC5=C(c6ccc(Cl)cc6)CC(C)(C)CC5)CC4)cc3Oc3cnc4[nH]ccc4c3)cc2[N+](=O)[O-])CC1` [Compound 65, 4-(4-{[2-(4-chlorophenyl)-4,4-dimethylcyclohex-1-en-1-yl]methyl}piperazin-1-yl)-N-[(4-{[(1-methylpiperidin-4-yl)methyl]amino}-3-nitrophenyl)sulfonyl]-2-(1H-pyrrolo[2,3-b]pyridin-5-yloxy)benzamide]: below 0.01 nM; `CC1(C)CCC(CN2CCN(c3ccc(C(=O)NS(=O)(=O)c4ccc(NC5CCN(C6COC6)CC5)c([N+](=O)[O-])c4)c(Oc4cnc5[nH]ccc5c4)c3)CC2)=C(c2ccc(Cl)cc2)C1` [Compound 139, 4-(4-{[2-(4-chlorophenyl)-4,4-dimethylcyclohex-1-en-1-yl]methyl}piperazin-1-yl)-N-({3-nitro-4-[(1-oxetan-3-ylpiperidin-4-yl)amino]phenyl}sulfonyl)-2-(1H-pyrrolo[2,3-b]pyridin-5-yloxy)benzamide]: below 0.01 nM. `O=C(NS(=O)(=O)c1ccc(OCC2(F)CCOCC2)c(Cl)c1)c1ccc(N2CCN(CC3=C(c4ccc(Cl)cc4)CCC4(CCN(C5COC5)CC4)C3)CC2)cc1Oc1cnc2[nH]ccc2c1` [Compound 325, N-({3-chloro-4-[(4-fluorotetrahydro-2H-pyran-4-yl)methoxy]phenyl}sulfonyl)-4-(4-{[9-(4-chlorophenyl)-3-(oxetan-3-yl)-3-azaspiro[5.5]undec-8-en-8-yl]methyl}piperazin-1-yl)-2-(1H-pyrrolo[2,3-b]pyridin-5-yloxy)benzamide] yielded a Ki below 0.01 nM.

Regarding `CN(C)CC(=O)N1CCO[C@@H](CNc2ccc(S(=O)(=O)NC(=O)c3ccc(N4CCN(CC5=C(c6ccc(Cl)cc6)CC(C)(C)CC5)CC4)cc3Oc3cnc4[nH]ccc4c3)cc2[N+](=O)[O-])C1` [Compound 259, 4-(4-{[2-(4-chlorophenyl)-4,4-dimethylcyclohex-1-en-1-yl]methyl}piperazin-1-yl)-N-{[4-({[(2S)-4-(N,N-dimethylglycyl)morpholin-2-yl]methyl}amino)-3-nitrophenyl]sulfonyl}-2-(1H-pyrrolo[2,3-b]pyridin-5-yloxy)benzamide], the Ki was below 0.01 nM. The figure for `CN1CC(Nc2ccc(S(=O)(=O)NC(=O)c3ccc(N4CCN(CC5=C(c6ccc(Cl)cc6)CC(C)(C)CC5)CC4)cc3Oc3cnc4[nH]ccc4c3)cc2[N+](=O)[O-])CC1=O` (stereo not drawn) [Compound 202, 4-(4-{[2-(4-chlorophenyl)-4,4-dimethylcyclohex-1-en-1-yl]methyl}piperazin-1-yl)-N-({4-[(1-methyl-5-oxopyrrolidin-3-yl)amino]-3-nitrophenyl}sulfonyl)-2-(1H-pyrrolo[2,3-b]pyridin-5-yloxy)benzamide] is below 0.01 nM; for `O=C(NS(=O)(=O)c1cnc(OCC2(F)CCN(C3COC3)CC2)c(Cl)c1)c1ccc(N2CCN(CC3=C(c4ccc(Cl)cc4)CC4(CC3)CC4)CC2)cc1Oc1cnc2[nH]ccc2c1` [Compound 345, N-[(5-chloro-6-{[4-fluoro-1-(oxetan-3-yl)piperidin-4-yl]methoxy}pyridin-3-yl)sulfonyl]-4-(4-{[5-(4-chlorophenyl)spiro[2.5]oct-5-en-6-yl]methyl}piperazin-1-yl)-2-(1H-pyrrolo[2,3-b]pyridin-5-yloxy)benzamide] it is below 0.01 nM.
